# Assays:
# Biodistribution in rats = assay type: in vivo, rat; settings: for Biodistribution, Ovary / Biodistribution, Testes / Biodistribution, Uterus: n = 2
# Description: During the development of embodiments of the technology, data were collected from bioevaluation studies of [^18F]4F-MHPG. […]
# During the development of embodiments of the technology provided herein, the biodistribution of [^18F]4F-MHPG into the organs of rats was assessed. In particular, four time points (Table 3) were collected and used to derive human radiation absorbed dose estimates using the OLINDA/EXM 1.0 software package (see, e.g., Stabin et al. (2005) “OLINDA/EXM; the second-generation personal computer software for internal dose assessment in nuclear medicine”, J Nucl Med. 46: 1023-7). […] These values were entered into the Dynamic Bladder model of OLINDA/EXM, assuming a 4.0-hour void interval. Organs with the highest absorbed dose estimates included the urinary bladder wall (0.666 rad/mCi), […] (0.221 rad/mCi), small intestine (0.201 rad/mCi), and the heart wall (0.201 rad/mCi). An ‘effective dose’ of 0.091 rem/mCi was estimated for [^18F]4F-MHPG. Under United States Federal Regulations governing research with a new radiopharmaceutical (21 CFR § 361.1), the maximum allowable radiation absorbed dose to an individual organ (other than the gonads) is 5 rad. Considering the maximum estimated absorbed dose (urinary bladder wall; 0.666 rad/mCi), initial PET studies in human subjects could use a maximum of 7.5 mCi of [^18F]4F-MHPG. This would correspond to an ‘effective dose’ of 0.68 rem.
# [1] = system: cardiac sympathetic nerve terminals; experiment: MicroPET imaging and myocardial kinetics (compartmental modeling, Patlak graphical analysis) in monkeys; assay type: in vivo, rhesus macaque monkey
# Description: A series of microPET imaging studies were performed in the macaque model to assess image quality and tracer kinetics. In most of these the time course of the metabolic breakdown of [^18F]4F-MHPG in plasma was also determined. The studies are summarized below in Table 1.
# During the development of embodiments of the technology provided herein, the kinetics of [^18F]4F-MHPG in monkey hearts was assessed using either compartmental modeling or Patlak graphical analysis to obtain quantitative measures of regional cardiac sympathetic nerve density.
# For some analyses, a simplified compartmental model that assumed irreversible trapping inside nerve terminals was used to estimate the model rate constants K1 (ml/min/g), k2 (min^−1), k3 (min^−1), and a blood volume fraction BV (dimensionless) (see, e.g., FIG. 7). In both the control studies and DMI blocking studies, the model quickly converged to a single global minimum in just a few iterations of the nonlinear regression analysis (FIG. 8). […] This aggregate parameter provides a stable measure of cardiac nerve density that declined in a dose-dependent manner with increasing DMI dose (FIG. 9, “Kinetic modeling”).
# For some analyses, Patlak graphical analysis was used, which uses a mathematical transformation of the kinetic data Cp(t) and Ct(t) to generate a Tatlak plot′ having a characteristic linear phase (see, e.g., Patlak and Blasberg (1985) “Graphical evaluation of blood-to-brain transfer constants from multiple-time uptake data. Generalizations.” J Cereb Blood Flow 5: 584-90). The slope of the linear portion of a Patlak plot, Kp (ml/min/g), provides an alternate estimate of the ‘net uptake rate constant’ Ki (ml/min/g). Thus, for the model structure used (FIG. 7), the slope of the Patlak plot is given by Kp≈(K1k3)/(k2+k3).
# During the development of embodiments of the technology provided herein, the myocardial kinetics of [^18F]4F-MHPG was assessed using Patlak graphical analysis and metabolite-corrected plasma input functions. In this example, the Patlak plot is highly linear (r^2=1.00) and the estimated Patlak slope Kpatlak=0.252 ml/min/g. […] As such, regional estimates of the Patlak slope from Patlak analysis of the kinetics of [^18F]4F-MHPG serve as robust measures of regional cardiac sympathetic nerve density in patients with heart diseases.
# [2] = 30 minutes after injection, n=5
compound,measurement,setting,value
N=C(N)NCCc1ccc(F)c(O)c1 [[^18F]4F-MHPG] [4-[^18F]fluoro-meta-hydroxy-phenethylguanidine],maximum percentage of the injected dose observed in the gastrointestinal tract,Biodistribution in rats,12.6%
same,"Biodistribution, Adrenal",Biodistribution in rats; 5 min,0.203 ± 0.083 % ID · kg/g
same,"Biodistribution, Blood",Biodistribution in rats; 5 min,0.062 ± 0.004 % ID/g
same,"Biodistribution, Bone",Biodistribution in rats; 5 min,0.060 ± 0.015 % ID/g
same,"Biodistribution, Brain",Biodistribution in rats; 5 min,0.004 ± 0.001 % ID · kg/g
same,"Biodistribution, Eyeballs",Biodistribution in rats; 5 min,0.039 ± 0.006 % ID · kg/g
same,"Biodistribution, Heart",Biodistribution in rats; 5 min,0.746 ± 0.067 % ID · kg/g
same,"Biodistribution, Kidney",Biodistribution in rats; 5 min,1.398 ± 0.530 % ID · kg/g
same,"Biodistribution, Liver",Biodistribution in rats; 5 min,0.477 ± 0.110 % ID · kg/g
same,"Biodistribution, Lung",Biodistribution in rats; 5 min,0.267 ± 0.045 % ID · kg/g
same,"Biodistribution, Muscle",Biodistribution in rats; 5 min,0.019 ± 0.005 % ID/g
same,"Biodistribution, Pancreas",Biodistribution in rats; 5 min,0.137 ± 0.024 % ID · kg/g
same,"Biodistribution, Spleen",Biodistribution in rats; 5 min,0.268 ± 0.044 % ID · kg/g
same,"Biodistribution, Stomach",Biodistribution in rats; 5 min,0.116 ± 0.021 % ID · kg/g
same,"Biodistribution, Ovary",Biodistribution in rats; 5 min,0.194 ± 0.048 % ID · kg/g
same,"Biodistribution, Testes",Biodistribution in rats; 5 min,0.018 ± 0.002 % ID · kg/g
same,"Biodistribution, Uterus",Biodistribution in rats; 5 min,0.268 ± 0.044 % ID · kg/g
same,"Biodistribution, Adrenal",Biodistribution in rats; 30 min,0.181 ± 0.069 % ID · kg/g
same,"Biodistribution, Blood",Biodistribution in rats; 30 min,0.022 ± 0.003 % ID/g
same,"Biodistribution, Bone",Biodistribution in rats; 30 min,0.039 ± 0.015 % ID/g
same,"Biodistribution, Brain",Biodistribution in rats; 30 min,0.003 ± 0.000 % ID · kg/g
same,"Biodistribution, Eyeballs",Biodistribution in rats; 30 min,0.040 ± 0.004 % ID · kg/g
same,"Biodistribution, Heart",Biodistribution in rats; 30 min,0.602 ± 0.111 % ID · kg/g
same,"Biodistribution, Kidney",Biodistribution in rats; 30 min,0.183 ± 0.055 % ID · kg/g
same,"Biodistribution, Liver",Biodistribution in rats; 30 min,0.406 ± 0.071 % ID · kg/g
same,"Biodistribution, Lung",Biodistribution in rats; 30 min,0.136 ± 0.032 % ID · kg/g
same,"Biodistribution, Muscle",Biodistribution in rats; 30 min,0.025 ± 0.011 % ID/g
same,"Biodistribution, Pancreas",Biodistribution in rats; 30 min,0.145 ± 0.021 % ID · kg/g
same,"Biodistribution, Spleen",Biodistribution in rats; 30 min,0.262 ± 0.055 % ID · kg/g
same,"Biodistribution, Stomach",Biodistribution in rats; 30 min,0.110 ± 0.004 % ID · kg/g
same,"Biodistribution, Ovary",Biodistribution in rats; 30 min,0.171 ± 0.020 % ID · kg/g
same,"Biodistribution, Testes",Biodistribution in rats; 30 min,0.010 ± 0.001 % ID · kg/g
same,"Biodistribution, Uterus",Biodistribution in rats; 30 min,0.155 ± 0.001 % ID · kg/g
same,"tissue concentration, adrenal medulla",Biodistribution in rats; [2],0.54 ± 0.08 percentage of the injected dose per gram
same,"tissue concentration, blood",Biodistribution in rats; [2],0.07 ± 0.01 percentage of the injected dose per gram
same,"tissue concentration, left ventricle",Biodistribution in rats; [2],1.45 ± 0.13 percentage of the injected dose per gram
same,"tissue concentration, liver",Biodistribution in rats; [2],1.14 ± 0.16 percentage of the injected dose per gram
same,"tissue concentration, lung",Biodistribution in rats; [2],0.43 ± 0.08 percentage of the injected dose per gram
same,"tissue concentration, muscle",Biodistribution in rats; [2],0.07 ± 0.01 percentage of the injected dose per gram
same,"tissue concentration, spleen",Biodistribution in rats; [2],0.56 ± 0.10 percentage of the injected dose per gram
same,"Biodistribution, Adrenal",Biodistribution in rats; 60 min,0.193 ± 0.053 % ID · kg/g
same,"Biodistribution, Blood",Biodistribution in rats; 60 min,0.016 ± 0.002 % ID/g
same,"Biodistribution, Bone",Biodistribution in rats; 60 min,0.027 ± 0.009 % ID/g
same,"Biodistribution, Brain",Biodistribution in rats; 60 min,0.002 ± 0.000 % ID · kg/g
same,"Biodistribution, Eyeballs",Biodistribution in rats; 60 min,0.041 ± 0.006 % ID · kg/g
same,"Biodistribution, Heart",Biodistribution in rats; 60 min,0.526 ± 0.116 % ID · kg/g
same,"Biodistribution, Kidney",Biodistribution in rats; 60 min,0.186 ± 0.090 % ID · kg/g
same,"Biodistribution, Liver",Biodistribution in rats; 60 min,0.350 ± 0.077 % ID · kg/g
same,"Biodistribution, Lung",Biodistribution in rats; 60 min,0.091 ± 0.015 % ID · kg/g
same,"Biodistribution, Muscle",Biodistribution in rats; 60 min,0.016 ± 0.002 % ID/g
same,"Biodistribution, Pancreas",Biodistribution in rats; 60 min,0.172 ± 0.042 % ID · kg/g
same,"Biodistribution, Spleen",Biodistribution in rats; 60 min,0.253 ± 0.054 % ID · kg/g
same,"Biodistribution, Stomach",Biodistribution in rats; 60 min,0.115 ± 0.029 % ID · kg/g
same,"Biodistribution, Ovary",Biodistribution in rats; 60 min,0.142 ± 0.052 % ID · kg/g
same,"Biodistribution, Testes",Biodistribution in rats; 60 min,0.008 ± 0.003 % ID · kg/g
same,"Biodistribution, Uterus",Biodistribution in rats; 60 min,0.112 ± 0.046 % ID · kg/g
same,"Biodistribution, Adrenal",Biodistribution in rats; 120 min,0.133 ± 0.021 % ID · kg/g
same,"Biodistribution, Blood",Biodistribution in rats; 120 min,0.009 ± 0.001 % ID/g
same,"Biodistribution, Bone",Biodistribution in rats; 120 min,0.016 ± 0.005 % ID/g
same,"Biodistribution, Brain",Biodistribution in rats; 120 min,0.001 ± 0.001 % ID · kg/g
same,"Biodistribution, Eyeballs",Biodistribution in rats; 120 min,0.026 ± 0.006 % ID · kg/g
same,"Biodistribution, Heart",Biodistribution in rats; 120 min,0.347 ± 0.055 % ID · kg/g
same,"Biodistribution, Kidney",Biodistribution in rats; 120 min,0.078 ± 0.024 % ID · kg/g
same,"Biodistribution, Liver",Biodistribution in rats; 120 min,0.233 ± 0.049 % ID · kg/g
same,"Biodistribution, Lung",Biodistribution in rats; 120 min,0.036 ± 0.006 % ID · kg/g
same,"Biodistribution, Muscle",Biodistribution in rats; 120 min,0.015 ± 0.002 % ID/g
same,"Biodistribution, Pancreas",Biodistribution in rats; 120 min,0.121 ± 0.016 % ID · kg/g
same,"Biodistribution, Spleen",Biodistribution in rats; 120 min,0.235 ± 0.066 % ID · kg/g
same,"Biodistribution, Stomach",Biodistribution in rats; 120 min,0.089 ± 0.019 % ID · kg/g
same,"Biodistribution, Ovary",Biodistribution in rats; 120 min,0.129 ± 0.029 % ID · kg/g
same,"Biodistribution, Testes",Biodistribution in rats; 120 min,0.004 ± 0.001 % ID · kg/g
same,"Biodistribution, Uterus",Biodistribution in rats; 120 min,0.081 ± 0.006 % ID · kg/g
same,net uptake rate constant Ki = (K1k3)/(k2+k3),"[1]; compartmental modeling, control studies, monkey heart",0.341 ± 0.041 mL/min/g
same,average measured Patlak slope Kp,"[1]; control studies, FIG. 11",0.302 ± 0.031 mL/min/g
same,in vivo defluorination,[1]; faint uptake in spinal column bones,little in vivo defluorination
same,liver uptake compared with [11C]HED or [123I]MIBG,[1]; microPET control studies,much lower
same,uptake in the lungs and liver,[1]; microPET control studies,very low uptake
same,estimated Patlak slope Kpatlak,"[1]; one control study, rhesus macaque, FIG. 10",0.252 mL/min/g
